Source: patent US12491199B2, “Polycannabinoids, compounds, compositions and methods of use” (priority 2020, dated 2025)
Entries after “also recorded” stand apart in the source; their conditions may differ. Where two headings read alike, the source gives them in different places.

How the values were obtained:
Type in all cases: physicochemical
[1] = Non-isothermal thermogravimetric analysis (TGA), onset of thermal degradation
Method: (§1) Materials and Methods: Cannabidiol (CBD) was purchased from EcoGen BioSciences and used as received. Cannabigerol (CBG) was purchased from Mile High Labs, Inc and used as received. All other chemicals were purchased from Sigma Aldrich and used without further purification unless otherwise noted. Unless otherwise indicated, ^1H NMR was collected using a Bruker AVANCE 500 MHz instrument. Thermo Gravimetric Analysis was conducted using a TA Instruments TGA Q-500 and DSC was collected using a TA Instruments DSC Q-20. GPC was taken using a WATERS GPC equipped with a 1515 HPLC Pump and Waters 717Plus Autoinjector. Ultra Performance Liquid Chromatograph tandem Mass Spectrometry (UPLC/MS/MS) was conducted using a Waters Acquity UPLC-TQD equipped with a PDA detector.
Thermogravimetric Analysis (TGA): Non-Isothermal degradation: Samples were heated in pre-tared platinum pans under nitrogen atmosphere to 700° C. at a heating rate of 10° C./minute.

[2] = Isothermal degradation by TGA in the presence of oxygen; settings: 60 minutes
Method: as §1
Isothermal degradation: Samples were heated in pre-tared pans while in the presence of oxygen to either 150, 160, 180 or 220° C. at a heating rate of 10° C./minute. They were left at the high temperature for 60 minutes. The degradation rate was determined from the slope of the weight % vs Time plots.

[3] = Heat induced by-product analysis (open vials, 175° C., 30 minutes, convection oven; NMR, UPLC/MS/MS); settings: for remaining residue after heating: 100 mg sample, open vial, convection oven; for remaining residue after heating / NMR analysis of the sample residues after heating / amount of by-product formation (LC/MS): 175° C., 30 minutes
Method: Heat induced by-product analysis experiment: Open vials containing 100 mg of CBD, CBD-Diacetate, and Poly(CBD) were heated at 175° C. for 30 minutes in a laboratory convection oven. After heating, the remaining residue was weighed at 89.64 mg, 91.35 mg, and 99.86 mg for each compound, respectively. Samples were then analyzed using ^1H NMR. […] Ultra performance liquid chromatograph tandem mass spectrometry (UPLC/MS/MS) was conducted to compare formed by-products against nine known cannabinoid standards.
Popular types of consumer cannabis products include tinctures, vaporizer liquids, and baked foods, while potential pharmaceutical products include oil extracts, solutions, and tablet. In each case, cannabinoids within the products are subjected to elevated temperatures for short periods of time during manufacturing or, in the case of vaporizer liquids, when being consumed. FIGS. 5-6 show the rates of degradation after short-term exposure to temperatures from 150-220° C. Table 1 includes the values of onset temperatures for thermal degradation and degradation rates for each compound. The phytocannabinoids degraded at rates from 0.2 wt % per minute to ˜10 wt % per minute at 150° C. and 220° C., respectively. Thermal degradation of both poly(cannabinoid)s remained less than 0.1 wt % over the same range, stabilizing the phytocannabinoid. Open vials containing 100 mg samples of CBD, CBD-diacetate, and poly(CBD-adipate) were heated at 175° C. in a laboratory convection oven for 30 minutes, after which 89.64 mg, 91.35, and 99.86 mg remained of each sample, respectfully. […]. Conversion of phytocannabinoids to poly(cannabinoid)s offers a preservative effect, eliminating the production of additional cannabinoids.

[4] = nitrogen atmosphere, heated to 700° C. at 10° C./minute
[5] = heated under the same conditions after purging thoroughly with argon

Compound	Td, onset for thermal degradation according to non-isothermal TGA [1, 4] [°C]	extrapolated onset degradation temperature (TGA) ([1]; non-isothermal TGA, FIGS. 3-4) [°C]	Degradation rate from isothermal TGA ([2]; 150° C.) [weight % loss per minute]	Degradation rate from isothermal TGA ([2]; 160° C.) [weight % loss per minute]	Degradation rate from isothermal TGA ([2]; 180° C.) [weight % loss per minute]	Degradation rate from isothermal TGA ([2]; 220° C.) [weight % loss per minute]	remaining residue after heating [3] [mg]	NMR analysis of the sample residues after heating [3]	amount of by-product formation (LC/MS) [3] [%]	Δ8-THC detected using 1H NMR [3, 5] [%]	Δ9-THC detected using 1H NMR [3, 5] [%]	NMR analysis of the sample residues after heating ([3]; listed as CBD-diacetate)	Td, onset for thermal degradation according to non-isothermal TGA [1] [°C]	extrapolated onset degradation temperature (TGA) [1] [°C]
C=C(C)[C@@H]1CCC(C)=C[C@H]1c1c(O)cc(CCCCC)cc1O [CBD, cannabidiol]	184	184	0.18	0.43	0.94	9.09	89.64	New peaks formed; also recorded: formation of additional compounds	10.68	0.21	0.16			
C=C(C)[C@@H]1CCC(C)=C[C@H]1c1c(OC(C)=O)cc(CCCCC)cc1OC(C)=O [CBD-Diacetate, Cannabidiol-Diacetate]	185	185	0.54	0.54	0.84	5.65	91.35	New peaks formed	25.32			formation of additional compounds		
CCCCCc1cc(O)c(C/C=C(\C)CCC=C(C)C)c(O)c1 [CBG, cannabigerol]													191	191
CCCCCc1cc(OC(C)=O)c(C/C=C(\C)CCC=C(C)C)c(OC(C)=O)c1 [CBG-Diacetate, Cannabigerol-Diacetate]	223		0.08	0.11	0.49	1.92								
